In the NIST ThermoML archive (doi:10.1016/j.jct.2012.07.022):
Numbers after ± are expanded uncertainties.

Test: wn = mass fraction of the nth substance listed
Settings: 101 kPa, Liquid; for electrical conductivity: Alternating current cell with electrodes; for viscosity: Capillary tube (Ostwald / Ubbelohde) method; for mass density: Vibrating tube method

O=c1cc[nH]c(=O)[nH]1 [2,4(1H,3H)-pyrimidinedione] + CC(=O)[O-].CCn1cc[n+](C)c1
Settings | electrical conductivity [S/m] | mass density [kg/m3] | viscosity [mPa·s]
298.15 K, w2 = 0 | 0.296 ± 0.006 | 1097.6 ± 0.3 | 128.5 ± 5.5
298.15 K, w2 = 0.0486 | 0.221 ± 0.004 | 1111 ± 0.3 | 190.6 ± 8.7
298.15 K, w2 = 0.1019 | 0.159 ± 0.003 | 1125 ± 0.3 | 294 ± 14
298.15 K, w2 = 0.1471 | 0.11 ± 0.01 | 1135.7 ± 0.3 | 437.6 ± 23
298.15 K, w2 = 0.2029 | 0.0807 ± 0.0016 | 1148.6 ± 0.3 | 682.8 ± 39
298.15 K, w2 = 0.2505 | 0.0585 ± 0.0012 | 1157.9 ± 0.4 | 1010 ± 62
298.15 K, w2 = 0.298 | 0.0388 ± 0.0008 | 1166.8 ± 0.4 | 1589 ± 110
303.15 K, w2 = 0 | 0.382 ± 0.008 | 1094.5 ± 0.3 | 95.23 ± 4
303.15 K, w2 = 0.0486 | 0.293 ± 0.006 | 1107.9 ± 0.3 | 136.6 ± 5.9
303.15 K, w2 = 0.1019 | 0.214 ± 0.004 | 1122 ± 0.3 | 204 ± 9
303.15 K, w2 = 0.1471 | 0.156 ± 0.003 | 1132.5 ± 0.3 | 293.1 ± 14
303.15 K, w2 = 0.2029 | 0.117 ± 0.002 | 1145.2 ± 0.3 | 441.4 ± 23
303.15 K, w2 = 0.2505 | 0.0878 ± 0.0018 | 1154.6 ± 0.4 | 630.8 ± 36
303.15 K, w2 = 0.298 | 0.0602 ± 0.0012 | 1163.7 ± 0.4 | 952.6 ± 58
308.15 K, w2 = 0 | 0.48 ± 0.01 | 1091.4 ± 0.3 | 72.42 ± 2.9
308.15 K, w2 = 0.0486 | 0.38 ± 0.01 | 1104.9 ± 0.3 | 100.9 ± 4.2
308.15 K, w2 = 0.1019 | 0.288 ± 0.006 | 1118.9 ± 0.3 | 146.4 ± 6.4
308.15 K, w2 = 0.1471 | 0.212 ± 0.004 | 1129.3 ± 0.3 | 204.2 ± 9.4
308.15 K, w2 = 0.2029 | 0.163 ± 0.003 | 1141.9 ± 0.3 | 297.8 ± 15
308.15 K, w2 = 0.2505 | 0.125 ± 0.003 | 1151.2 ± 0.3 | 413.1 ± 22
308.15 K, w2 = 0.298 | 0.0892 ± 0.0018 | 1160.5 ± 0.4 | 602.2 ± 34
313.15 K, w2 = 0 | 0.594 ± 0.012 | 1088.4 ± 0.3 | 56.38 ± 2.3
313.15 K, w2 = 0.0486 | 0.48 ± 0.01 | 1101.8 ± 0.3 | 76.6 ± 3.1
313.15 K, w2 = 0.1019 | 0.372 ± 0.007 | 1115.8 ± 0.3 | 108.2 ± 4.6
313.15 K, w2 = 0.1471 | 0.281 ± 0.006 | 1126.2 ± 0.3 | 147.1 ± 6.4
313.15 K, w2 = 0.2029 | 0.221 ± 0.004 | 1138.8 ± 0.3 | 208.6 ± 9.6
313.15 K, w2 = 0.2505 | 0.173 ± 0.004 | 1148 ± 0.3 | 281.8 ± 14
313.15 K, w2 = 0.298 | 0.127 ± 0.003 | 1157.1 ± 0.4 | 398.2 ± 21
318.15 K, w2 = 0 | 0.827 ± 0.017 | 1085.3 ± 0.3 | 44.79 ± 1.8
318.15 K, w2 = 0.0486 | 0.592 ± 0.012 | 1098.8 ± 0.3 | 59.5 ± 2.4
318.15 K, w2 = 0.1019 | 0.469 ± 0.009 | 1112.8 ± 0.3 | 82.2 ± 3.4
318.15 K, w2 = 0.1471 | 0.362 ± 0.007 | 1123.2 ± 0.3 | 109.1 ± 4.6
318.15 K, w2 = 0.2029 | 0.29 ± 0.01 | 1135.7 ± 0.3 | 150.9 ± 6.6
318.15 K, w2 = 0.2505 | 0.233 ± 0.005 | 1144.8 ± 0.3 | 199.2 ± 9.1
318.15 K, w2 = 0.298 | 0.176 ± 0.004 | 1153.9 ± 0.3 | 273.8 ± 13
323.15 K, w2 = 0 | 0.986 ± 0.02 | 1082.3 ± 0.3 | 36.23 ± 1.5
323.15 K, w2 = 0.0486 | 0.718 ± 0.014 | 1095.8 ± 0.3 | 47.16 ± 1.9
323.15 K, w2 = 0.1019 | 0.579 ± 0.012 | 1109.9 ± 0.3 | 63.79 ± 2.6
323.15 K, w2 = 0.1471 | 0.456 ± 0.009 | 1120.2 ± 0.3 | 82.98 ± 3.4
323.15 K, w2 = 0.2029 | 0.371 ± 0.007 | 1132.7 ± 0.3 | 112.2 ± 4.7
323.15 K, w2 = 0.2505 | 0.304 ± 0.006 | 1141.7 ± 0.3 | 145.2 ± 6.3
323.15 K, w2 = 0.298 | 0.233 ± 0.005 | 1150.8 ± 0.3 | 194.8 ± 8.9
328.15 K, w2 = 0 | – | 1079.3 ± 0.3 | 29.78 ± 1.2
328.15 K, w2 = 0.0486 | – | 1092.9 ± 0.3 | 38.06 ± 1.5
328.15 K, w2 = 0.1019 | – | 1106.9 ± 0.3 | 50.53 ± 2
328.15 K, w2 = 0.1471 | – | 1117.1 ± 0.3 | 64.55 ± 2.6
328.15 K, w2 = 0.2029 | – | 1129.6 ± 0.3 | 85.56 ± 3.5
328.15 K, w2 = 0.2505 | – | 1138.7 ± 0.3 | 108.7 ± 4.6
328.15 K, w2 = 0.298 | – | 1147.8 ± 0.3 | 142.7 ± 6.2
333.15 K, w2 = 0 | – | 1076.2 ± 0.3 | 24.82 ± 1
333.15 K, w2 = 0.0486 | – | 1089.9 ± 0.3 | 31.2 ± 1.3
333.15 K, w2 = 0.1019 | – | 1103.9 ± 0.3 | 40.73 ± 1.6
333.15 K, w2 = 0.1471 | – | 1114.1 ± 0.3 | 51.22 ± 2.1
333.15 K, w2 = 0.2029 | – | 1126.6 ± 0.3 | 66.66 ± 2.7
333.15 K, w2 = 0.2505 | – | 1135.7 ± 0.3 | 83.31 ± 3.4
333.15 K, w2 = 0.298 | – | 1144.7 ± 0.3 | 107.3 ± 4.5
338.15 K, w2 = 0 | – | 1073.3 ± 0.3 | 20.95 ± 0.85
338.15 K, w2 = 0.0486 | – | 1086.9 ± 0.3 | 25.94 ± 1.1
338.15 K, w2 = 0.1019 | – | 1100.9 ± 0.3 | 33.34 ± 1.4
338.15 K, w2 = 0.1471 | – | 1111.1 ± 0.3 | 41.34 ± 1.7
338.15 K, w2 = 0.2029 | – | 1123.6 ± 0.3 | 52.92 ± 2.1
338.15 K, w2 = 0.2505 | – | 1132.7 ± 0.3 | 65.2 ± 2.6
338.15 K, w2 = 0.298 | – | 1141.7 ± 0.3 | 82.59 ± 3.4
343.15 K, w2 = 0 | – | 1070.3 ± 0.3 | 17.88 ± 0.72
343.15 K, w2 = 0.0486 | – | 1083.9 ± 0.3 | 21.84 ± 0.88
343.15 K, w2 = 0.1019 | – | 1097.9 ± 0.3 | 27.67 ± 1.1
343.15 K, w2 = 0.1471 | – | 1108.1 ± 0.3 | 33.87 ± 1.4
343.15 K, w2 = 0.2029 | – | 1120.5 ± 0.3 | 42.75 ± 1.7
343.15 K, w2 = 0.2505 | – | 1129.6 ± 0.3 | 51.97 ± 2.1
343.15 K, w2 = 0.298 | – | 1138.7 ± 0.3 | 64.84 ± 2.6
